Values joined by “and” are separate entries in the source; they are usually repeats but may differ in a detail not shown here. Equal entries are not always repeated.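 48-hour exposure; five concentrations; linearly interpolated endpoints. GI50 marks 50% less growth.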 Active and inactive are the calls of the source. Rule as the data show it: active = GI50 up to about 1.1 µM and inactive = higher.
Key:
Test in all cases: NCI-60 cell line screen, 48 h
SF-268 = test system: SF-268
OVCAR-8 = test system: OVCAR-8
Malme-3M = test system: Malme-3M
NCI-H522 = test system: NCI-H522
HL-60 = test system: HL-60
RXF 393 = test system: RXF 393
UACC-62 = test system: UACC-62
COLO 205 = test system: COLO 205
Hs-578T = test system: Hs-578T
MOLT-4 = test system: MOLT-4
MDA-MB-231 = test system: MDA-MB-231
OVCAR-3 = test system: OVCAR-3
NCI-H226 = test system: NCI-H226
DU-145 = test system: DU-145
PC-3 = test system: PC-3
CAKI-1 = test system: CAKI-1
SN12C = test system: SN12C
HOP-62 = test system: HOP-62
SK-OV-3 = test system: SK-OV-3
SR = test system: SR

Measured: GI50

COc1cc2c(c(OC)c1OC)C(=O)[C@H](O)[C@H]2NC(N)=O
inactive: SF-268 > 100 µM | OVCAR-8 > 100 µM | Malme-3M > 100 µM | NCI-H522 > 100 µM | HL-60 90.8 µM | RXF 393 47.8 µM | UACC-62 17.6 µM | COLO 205 50.7 µM | Hs-578T 60 µM | MOLT-4 95.9 µM | MDA-MB-231 86.3 µM | OVCAR-3 82 µM | NCI-H226 > 100 µM | DU-145 > 100 µM | PC-3 > 100 µM | CAKI-1 90.6 µM | SN12C > 100 µM | HOP-62 > 100 µM

COC(=O)c1ccc(C)cc1CC1Cc2cccc(C)c2C1=O (centres undefined)
inactive: SF-268 7.98 µM | OVCAR-8 5.08 µM | Malme-3M 5.97 µM | NCI-H522 2.37 µM | RXF 393 7.87 µM | SK-OV-3 8.05 µM | UACC-62 9.57 µM | COLO 205 4.9 µM | Hs-578T 9.77 µM | MOLT-4 4.11 µM | MDA-MB-231 7.1 µM | OVCAR-3 4.95 µM | NCI-H226 3.83 µM | DU-145 11.9 µM | PC-3 8.34 µM | CAKI-1 10.6 µM | SN12C 10.2 µM | HOP-62 17.9 µM

C=CC(C)(O)CCC1C(=C)C(O)CC2C(C)(C)CCCC12C (centres undefined)
inactive: SF-268 19.9 µM | OVCAR-8 26.1 µM | Malme-3M 18.2 µM | NCI-H522 17.6 µM | HL-60 14 µM | RXF 393 14.3 µM | SK-OV-3 33.3 µM | UACC-62 16 µM | COLO 205 16 µM | Hs-578T 22.6 µM | MOLT-4 14.2 µM | MDA-MB-231 17.7 µM | OVCAR-3 18.9 µM | NCI-H226 15.6 µM | DU-145 18.2 µM | PC-3 15.3 µM | CAKI-1 23.5 µM | SN12C 18.9 µM | HOP-62 20.6 µM

CCOC(=O)c1sc2c(c1OC(=O)c1cc(OC)c(OC)c(OC)c1)c(=O)n(-c1ccccc1)c(=S)n2-c1ccccc1
inactive: SF-268 > 100 µM | OVCAR-8 74.8 µM | Malme-3M > 100 µM | NCI-H522 4.81 µM | HL-60 62.8 µM | RXF 393 > 100 µM | SK-OV-3 > 100 µM | UACC-62 51.8 µM | COLO 205 > 100 µM | Hs-578T 51.2 µM | MOLT-4 28.4 µM | MDA-MB-231 56.6 µM | OVCAR-3 87.7 µM | NCI-H226 > 100 µM | DU-145 > 100 µM | PC-3 63.5 µM | CAKI-1 > 100 µM | SN12C 90.2 µM | HOP-62 > 100 µM

CSC(=S)NN=C1CCCCC1
inactive: SF-268 38.5 µM | OVCAR-8 8.93 µM | Malme-3M 14.6 µM | NCI-H522 24.8 µM | RXF 393 > 100 µM | SK-OV-3 > 100 µM | UACC-62 18.7 µM | COLO 205 47.1 µM | Hs-578T 59 µM | MOLT-4 15.7 µM | MDA-MB-231 17.6 µM | OVCAR-3 22.3 µM | NCI-H226 13.9 µM | DU-145 27.4 µM | PC-3 30.8 µM | CAKI-1 20.1 µM | SN12C 24.4 µM | HOP-62 47.3 µM

CN1C(=O)C(/C=N/NC(=O)c2cccnc2)C(N)N(C)C1=O (centres undefined)
inactive: SF-268 > 100 µM | OVCAR-8 > 100 µM | Malme-3M > 100 µM | NCI-H522 > 100 µM | RXF 393 > 100 µM | SK-OV-3 > 100 µM | UACC-62 > 100 µM | COLO 205 > 100 µM | Hs-578T > 100 µM | MOLT-4 > 100 µM | MDA-MB-231 > 100 µM | OVCAR-3 > 100 µM | NCI-H226 > 100 µM | DU-145 > 100 µM | PC-3 > 100 µM | CAKI-1 > 100 µM | SN12C > 100 µM | HOP-62 > 100 µM

Cc1nc2c(Br)cc(Br)cc2c(=O)n1-c1ccccc1NC1OC(CO)C(O)C(O)C1O (centres undefined)
inactive: SF-268 > 100 µM | OVCAR-8 > 100 µM | Malme-3M > 100 µM | NCI-H522 > 100 µM | HL-60 > 100 µM | RXF 393 > 100 µM | SK-OV-3 > 100 µM | UACC-62 > 100 µM | COLO 205 > 100 µM | Hs-578T > 100 µM | MOLT-4 > 100 µM and 79.1 µM | MDA-MB-231 > 100 µM | OVCAR-3 > 100 µM | NCI-H226 > 100 µM | DU-145 > 100 µM | PC-3 > 100 µM | CAKI-1 > 100 µM | SN12C > 100 µM | HOP-62 > 100 µM

CN(C)CCNC1=CC(=O)c2c(O)ccc(O)c2C1=O
inactive: SF-268 12.3 µM | OVCAR-8 4.39 µM | Malme-3M 1.25 µM | NCI-H522 3.73 µM | HL-60 1.95 µM | RXF 393 14.2 µM | SK-OV-3 28.6 µM | UACC-62 2.33 µM | COLO 205 1.9 µM | Hs-578T 23.1 µM | MOLT-4 5.14 µM | MDA-MB-231 11.7 µM | OVCAR-3 2.33 µM | NCI-H226 17.6 µM | DU-145 13.8 µM | PC-3 5.77 µM | CAKI-1 13.9 µM | SN12C 6.47 µM | HOP-62 16.3 µM

CCOC(=O)C1=C(C)NC(=O)NC1c1ccc(N(CCCl)CCCl)cc1Cl (centres undefined)
inactive: SF-268 15.5 µM | OVCAR-8 12.9 µM | Malme-3M 14.9 µM | NCI-H522 13.6 µM | HL-60 1.73 µM | RXF 393 17.1 µM | SK-OV-3 17.3 µM | UACC-62 10.6 µM | COLO 205 18.6 µM | Hs-578T 17.1 µM | MDA-MB-231 13.6 µM | OVCAR-3 15.5 µM | NCI-H226 15.2 µM | DU-145 18.2 µM | PC-3 15.2 µM | CAKI-1 17.2 µM | SN12C 16.3 µM | HOP-62 15.2 µM

NCS(=O)(=O)O
inactive: SF-268 > 100 µM | OVCAR-8 > 100 µM | Malme-3M > 100 µM | NCI-H522 > 100 µM | HL-60 > 100 µM | RXF 393 > 100 µM | SK-OV-3 > 100 µM | UACC-62 > 100 µM | COLO 205 > 100 µM | Hs-578T > 100 µM | MOLT-4 > 100 µM | MDA-MB-231 > 100 µM | OVCAR-3 > 100 µM | NCI-H226 > 100 µM | DU-145 > 100 µM | PC-3 > 100 µM | CAKI-1 > 100 µM | SN12C > 100 µM | HOP-62 > 100 µM

COc1cc(-c2cc(=O)c3c(OC)c(OC)c(OC)c(OC)c3o2)cc(OC)c1OC [HEPATAMETHOXYFLAVONE]
inactive: SF-268 32.9 µM | OVCAR-8 24.5 µM | Malme-3M 39.6 µM | NCI-H522 19.1 µM | HL-60 15 µM | RXF 393 28.1 µM | SK-OV-3 3.87 µM | UACC-62 21 µM | COLO 205 18.7 µM | Hs-578T 29 µM | MOLT-4 24.9 µM | MDA-MB-231 31.6 µM | OVCAR-3 25.5 µM | NCI-H226 44.8 µM | DU-145 45.5 µM | SR > 100 µM | CAKI-1 21.6 µM | SN12C 43.6 µM | HOP-62 41.9 µM

— ChEMBL document CHEMBL1201862, “PubChem BioAssay data set” (2004)
